No end group written: not given here. *: point of attachment. Biotin = O=C1N[C@H]2[C@H](CS[C@H]2CCCCC(=O)*)N1
Columns and labels:
[1] = system: liver cancer cell lines (HepG2, Hep3B); experiment: MTT cell viability, liver cancer cell lines; type: cell-based, human; conditions: 0-10 μM, 24-96 h
Protocol: (§1) Liver cancer cell lines (HepG2, Hep3B) were inoculated into 96-well plates at a density of 3000 cells/well, and then 50 μl of culture solution was added thereto. Cells were cultured at 37° C. and 5% CO2 for 1 h. […] Cells were cultured at 37° C. and 5% CO2 for 24, 48, 72, and 96 h. After completion of the culture, the remaining culture solution was removed from the well plates, the cultures were diluted with MTT solution (3-(4,5-dimethylthiazol-2-yl)-2,5-diphenyltetrazole bromide) to a final density of 500 μg/ml, and cells were cultured at 37° C. and 5% CO2 for 3 h. The remaining MTT solution was removed and 150 μl of dimethyl sulfoxide (DMSO) was added. The reaction was carried out at room temperature for 20 min. After completion of the reaction, absorbance was measured using a microplate reader.

[2] = system: breast cancer cell lines (MCF7, MDA-MB-231); experiment: MTT cell viability, breast cancer cell lines; type: cell-based, human; conditions: 0-10 μM, 24-96 h
Protocol: as §1

[3] = system: glioblastoma cell lines (U251, U87MG, U343); experiment: MTT cell viability, glioblastoma cell lines; type: cell-based, human; conditions: 0-10 μM, 24-96 h
Protocol: as §1

[4] = system: human blood cancer cell lines (K562, HEL, HL60); experiment: MTT cell viability, human blood cancer cell lines; type: cell-based; conditions: 0-10 μM, 24-96 h
Protocol: as §1

[5] = system: BEAS2B and MCF10A normal epithelial cell lines
Protocol: as §1

[6] = system: human embryonic kidney cancer cell line (293T); experiment: MTT cell viability, 293T; type: cell-based; conditions: 0-10 μM, 24-96 h
Protocol: as §1

[7] = system: human embryonic stem cells (hESCs, H9)
From the text: MEF cells labeled with rhodamine were often used to distinguish them from hESC-derived cells.

[8] = system: CP2c; experiment: Luciferase reporter assay of CP2c transcriptional activity in 293T cells; type: cell-based, human; conditions: 2 μM, 48 h, wild-type CP2c binding sites, compared with FQI1
Protocol: 293T cells were inoculated into a 12-well plate at a density of 1×10^5 cells/well. 12 h after inoculation, cells were transfected with combinations of a reporter vector (the wild-type reporter links the enhancer sequence of the GATA-1 gene including twice repeated CP2c-binding sites to the upstream of the luciferase gene and Mut 1/3, Mut 2/4, and Mut 1-4 reporters cause mutations of the CP2c binding sites present in the enhancer sequence) and various Flag-CP2c, HA-CP2b, and HA-PIAS1 expression vectors by using the effectene method. After 1-h culture, cells were treated with FQI1, Peptide 5C, and Peptide 5-2C at concentrations of 2 μM, followed by 48-h culture. Cells were harvested and lysed in 250 μl of passive cell lysis buffer (Promega) to obtain an extract. 20 μl of the cell extract and a dual-luciferase assay kit (Promega) were used to measure the activity of the labeled luciferase gene in GLOMAX (Promega) (the expression of each expression vector was confirmed by Western blotting).

[9] = system: cancer cell lines (HepG2, Hep3B, 293T, MCF-7, MDA-MB-231, K562, HEL, HL60, U251, U373MG, U87MG); experiment: Microscopic observation of growth inhibition and apoptosis, cancer cell lines; type: cell-based, human; conditions: 2 μM, 48 h
Protocol: (§2) Liver cancer cell lines (HepG2, Hep3B), a human embryonic kidney cell line (293T), breast cancer cell lines (MCF-7, MDA-MB-231), blood tumor cell lines (K562, HEL, HL60), glioblastoma cell lines (U251, U373MG, U87MG), a mammary epithelial cell line (MCF10A), a lung epithelial cell line (BEAS2B), human mesenchymal stem cells (hMSCs), and mouse primary T cells (resting and activated T cells) were inoculated into 96-well plates at a density of 3,000 cells/well, supplemented with 50 μl of culture solution, and cultured at 37° C. and 5% CO2 for 1 h. […] After completion of the culture, cells were observed under an inverted phase contrast microscope and their morphological changes were imaged.

[10] = system: normal cell lines (MCF10A, BEAS2B, hMSCs, mouse primary T cells)
Protocol: as §2

[11] = target: T1, CP2c (Mus musculus, UniProt Q9ERA0); experiment: DNA immunoprecipitation (DIP) assay of CP2c-DNA binding; conditions: 0.2, 0.5, and 1 μg peptide; MEL nuclear extract; α-globin promoter probe
T1 construct: 5 μg of the nuclear extract and an [α-32p] dCTP-labeled DNA probe; endogenous in cells; host or cells: MEL (murine erythroid leukemia) cells, HMBA-differentiated, nuclear extract
T1 sequence (Q9ERA0 1-502): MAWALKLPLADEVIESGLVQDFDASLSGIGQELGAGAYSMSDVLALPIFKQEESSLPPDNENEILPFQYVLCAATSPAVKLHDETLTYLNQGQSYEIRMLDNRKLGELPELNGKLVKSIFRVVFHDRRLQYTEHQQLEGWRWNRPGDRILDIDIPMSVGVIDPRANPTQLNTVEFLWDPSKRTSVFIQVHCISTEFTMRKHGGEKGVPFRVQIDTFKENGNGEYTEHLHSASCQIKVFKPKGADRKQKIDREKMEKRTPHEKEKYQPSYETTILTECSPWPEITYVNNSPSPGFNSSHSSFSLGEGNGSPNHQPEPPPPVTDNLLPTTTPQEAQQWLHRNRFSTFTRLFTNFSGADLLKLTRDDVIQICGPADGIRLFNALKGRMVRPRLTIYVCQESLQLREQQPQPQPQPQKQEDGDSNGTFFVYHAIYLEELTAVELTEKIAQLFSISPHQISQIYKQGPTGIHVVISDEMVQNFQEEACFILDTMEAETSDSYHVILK
Protocol: To analyze whether the five peptides identified in Example 1.1 bind to CP2c in cells to affect the ability of CP2c to bind to DNA, DNA immunoprecipitation (DIP) assay was performed as disclosed in another preceding research conducted by the present inventors (Kim et al., A DNA immunoprecipitation assay used in quantitative detection of in vitro DNA-protein complex binding, Analytical Biochemistry. 2013; 441: 147-151).
In summary, the differentiation of a murine erythroid leukemia (MEL) cell line was induced by treatment with 5 mM hexamethylene bisacetamide (HMBA) and, on day 2 after differentiation, a cellular nuclear extract was separated. […]
Subsequently, 5 μg of the nuclear extract and an [α-32p] dCTP-labeled DNA probe (a sequence corresponding to the common CP2c binding site present in mouse α-globin promoter and between −156 and −124 in the start codon of the α-globin gene, see the paper of Kim et al. for details of the sequence) were allowed to react with a binding buffer (4% glycerol, 10 mM Tris-HCl, 1 mM DTT, 1 mM EDTA, and 0.1% NP-40) for 15 min, and gradually increasing amounts (0.2, 0.5, and 1 μg) of the identified CP2c binding peptides (Peptide 5, Peptide 8, Peptide 13, Peptide 21, and Peptide 31) were added thereto. […] The CP2c protein was removed from the DNA probe and the remaining amount of the DNA probe was measured using a scintillation counter. […]

[12] = target: T1, CP2c; conditions: Kim et al., Analytical Biochemistry 2013; cited from earlier work
[13] = system: MDA-MB-231 cell line and MCF7 cell line; experiment: MTT assay of Peptide 5-2CB; type: cell-based, human
From the text: To support this assumption, a CP2c protein region with which Peptide 5-2C interacts and amino acids in the region directly binding to Peptide 5-2C need to be identified. Thus, an attempt was made to obtain mutant CP2c proteins in which polar amino acids present in the CP2c region binding with Peptide 5 shown in FIG. 1 were substituted with Ala and analyze the binding of the mutant CP2c proteins with Peptide 5-2C by enzyme-linked immunosorbent assay (ELISA). To facilitate this analysis, Peptide 5-2CB was synthesized in which biotin tag is bonded to the C-terminal Pro residue of Peptide 5-2C. To confirm whether Peptide 5-2CB induces cancer cell-specific growth interruption and apoptosis, like Peptide 5-2C, MTT assay was conducted on two different batches of Peptide 5-2CB in MDA-MB-231 cell line and MCF7 cell line by the same method as in Example 5.1. IC50 values were also calculated from the results of MTT assay. To obtain 19 mutant CP2c proteins in which polar amino acids present in the CP2c region binding with Peptide 5-2C were substituted with Ala, oligonucleotides having sequences encoding the corresponding mutant amino acids were synthesized and site-directed mutagenesis was carried out. The base sequences encoding the mutant CP2c genes were cloned into the pGEX4 vector and mutant GST-fusion CP2c proteins were purified using beads bound with antibody against GST-tag. […]

[14] = target: T2, GST-CP2c wild type (UniProt Q9ERA0 Q9ERA0:1-502); experiment: pulldown; DNA-IP, values only in figure; conditions: tags: GST fusion, E. coli; label: 32P
T2 sequence: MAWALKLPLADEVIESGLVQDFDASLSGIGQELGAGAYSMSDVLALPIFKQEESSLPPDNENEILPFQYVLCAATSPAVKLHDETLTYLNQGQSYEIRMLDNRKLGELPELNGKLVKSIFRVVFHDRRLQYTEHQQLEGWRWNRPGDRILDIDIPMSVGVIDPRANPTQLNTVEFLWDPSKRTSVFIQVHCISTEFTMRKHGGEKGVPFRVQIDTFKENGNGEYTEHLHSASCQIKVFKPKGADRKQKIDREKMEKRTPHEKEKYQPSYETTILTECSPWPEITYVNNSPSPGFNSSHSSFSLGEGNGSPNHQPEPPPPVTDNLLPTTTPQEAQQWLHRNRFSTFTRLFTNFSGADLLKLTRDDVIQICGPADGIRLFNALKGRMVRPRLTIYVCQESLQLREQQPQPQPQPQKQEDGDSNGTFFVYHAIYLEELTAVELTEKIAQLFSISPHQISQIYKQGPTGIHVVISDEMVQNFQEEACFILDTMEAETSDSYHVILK

In the case of “Ac-HERRESNYPQRPCRGCRGDKGPDC-Amide (Ac-HERRESNYPQRPCRGCRGDKGPDC-NH2; ends and bridges not checked) [Peptide 5C]”, the “relative viability (MTT), liver cancer cell lines, compared with FQI1” value [1] is reported as “more effectively inhibited the growth of the liver cancer cell lines and induced apoptosis than FQI1”, the “relative viability (MTT), breast cancer cell lines, compared with FQI1” value [2] is reported as “more effectively inhibited the growth of the breast cancer cell lines and induced apoptosis than FQI1” and the “relative viability (MTT), glioblastoma cell lines, compared with FQI1” value [3] is reported as “more effectively inhibited the growth of the glioblastoma cell lines and induced apoptosis than FQI1”. For the same molecule, the “relative viability (MTT), K562, HEL, HL60, compared with FQI1” value [4] was “slightly effectively inhibited the growth of the glioblastoma cell lines and induced apoptosis compared to FQI1”, the “growth inhibition and apoptosis induction of normal control cell lines (IC50 calculation)” value [5] was “inhibited cell growth and induced apoptosis, similarly to the treatment with Peptide 5C” and the “relative viability (MTT), 293T, compared with FQI1” value [6] was “inhibited the growth of the glioblastoma cell lines and induced apoptosis similarly to FQI1”. The “cytotoxicity (MTT) in hESCs” value [7] was “slight cytotoxicity at high concentrations”, the “CP2c-mediated transcriptional activity (luciferase reporter)” value [8] was “effectively inhibit CP2c-mediated transcriptional activity compared to FQI1” and the “growth inhibition and apoptosis induction of cancer cell lines (microscopy)” value [9] was “specifically inhibited the growth of the cancer cell lines and induced apoptosis”. For the same molecule, the “effect on normal cell lines (microscopy)” value [10] was “without substantially affecting the normal cell lines”.

In the case of HERRESNYPQRP [Peptide 5], the “inhibition of CP2c-DNA binding (DIP assay)” value [11] is listed as “specifically inhibited the CP2c-DNA binding in a concentration-dependent manner” and the “inhibition of CP2c-DNA binding (DNA immunoprecipitation)” value [12] is listed as “inhibits CP2c-DNA binding in a concentration-dependent manner”.

For “Peptide 5-2CB: biotin-tagged Lys linked to the C-terminal Cys residue of Peptide 5-2C (NYPQRPCRGDKGPDCK(Biotin); not fully specified; cysteine pairing not given here)”, the “IC50 compared with Peptide 5-2C” value ([13]; 48 h) was “had IC50 values similar to Peptide 5-2C” and the “cancer cell growth interruption and apoptosis (MTT)” value ([13]; two batches, increasing concentrations) was “induced cancer cell-specific cell growth interruption and apoptosis”.

B1: alpha-globin promoter CP2c site probe (dsDNA)
DNA 1: GATCCCAAGTTTTACTCGGTAGAGCAAGCACAAACCAGG
DNA 2: CCTGGTTTGTGCTTGCTCTACCGAGTAAAACTTGGGATC
B1: binds [14].

— patent US10611797B2, “Peptide having anticancer activity, and pharmaceutical composition and dietary supplement composition for preventing and treating cancer, both of which contain same as active ingredient” (IUCF-HYU (INDUSTRY-UNIVERSITY COOPERATION FOUNDATION …, priority 2015, dated 2020)
